# Reference: patent publication US7335679B2 (Arizona Board of Regents on behalf of the University of …, priority 2001, dated 2008)
# Tested on: C57BL6 mice
# Test: in vivo toxicity in mice, ip daily for 4 days
# Details: ip daily × 4, MTD = >10% body weight loss
# Text: Highlighted are the compounds being made for antitumor testing.
smiles,measurement,value
"COC[C@H]1OC(=O)c2coc3c2[C@@]1(C)C1=C(C3=O)[C@@H]2CCC(=O)[C@@]2(C)C[C@H]1OC(C)=O [wortmannin, reference compound]",Maximum tolerated dose mg/kg ip qD × 4,2.5 mg/kg
